Measurements taken from PubChem BioAssay (NCI).
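Exposure lasted 48 hours, with cells grown in 96-well plates and compounds tested at five concentrations. GI50 is the concentration that inhibits growth by half. The concentration for full growth arrest is given as TGI.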

What was measured:
Assay in all cases: growth of human tumour cells (NCI), 48 h
[1] = system: 786-0 renal
[2] = system: A498 renal
[3] = system: A549 NSCLC
[4] = system: ACHN renal
[5] = system: BT-549 breast
[6] = system: CAKI-1 renal
[7] = system: CCRF-CEM leukemia
[8] = system: COLO 205 colon
[9] = system: DU-145 prostate
[10] = system: EKVX NSCLC
[11] = system: HCC-2998 colon
[12] = system: HCT-116 colon
[13] = system: HCT-15 colon
[14] = system: HOP-62 NSCLC
[15] = system: HOP-92 NSCLC
[16] = system: HS 578T breast
[17] = system: HT29 colon
[18] = system: IGROV1 ovarian
[19] = system: K-562 leukemia
[20] = system: KM12 colon
[21] = system: LOX IMVI melanoma
[22] = system: M14 melanoma
[23] = system: MALME-3M melanoma
[24] = system: MCF7 breast
[25] = system: MDA-MB-231 breast
[26] = system: MOLT-4 leukemia
[27] = system: NCI-H226 lung
[28] = system: NCI-H23 lung
[29] = system: NCI-H460 lung
[30] = system: NCI-H522 lung
[31] = system: NCI/ADR-RES ovarian
[32] = system: OVCAR-3 ovarian
[33] = system: OVCAR-4 ovarian
[34] = system: OVCAR-5 ovarian
[35] = system: OVCAR-8 ovarian
[36] = system: PC-3 prostate
[37] = system: RPMI-8226 leukemia
[38] = system: RXF 393 renal
[39] = system: SF-268 CNS
[40] = system: SF-295 CNS
[41] = system: SF-539 CNS
[42] = system: SK-MEL-2 melanoma
[43] = system: SK-MEL-28 melanoma
[44] = system: SK-MEL-5 melanoma
[45] = system: SK-OV-3 ovarian
[46] = system: SN12C renal
[47] = system: SNB-19 CNS
[48] = system: SNB-75 CNS
[49] = system: SR leukemia
[50] = system: SW-620 colon
[51] = system: T-47D breast
[52] = system: TK-10 renal
[53] = system: U251 CNS
[54] = system: UACC-257 melanoma
[55] = system: UACC-62 melanoma
[56] = system: UO-31 renal

## O=C(Nc1nc(-c2ccc(Cl)cc2)cs1)c1cc(-c2ccc(Br)cc2)nc2ccc(Cl)cc12
[1]
  GI50: 3.53 µM
  TGI: 67.1 µM
[2]
  GI50: 30.7 µM
  TGI: > 100 µM
[3]
  GI50: 43.8 µM
  TGI: > 100 µM
[4]
  GI50: 5.18 µM
  TGI: > 100 µM
[5]
  GI50: 2.47 µM
  TGI: 7.89 µM
[6]
  GI50: 20.5 µM
  TGI: > 100 µM
[7]
  GI50: 4.06 µM
  TGI: > 100 µM
[8]
  GI50: 26.9 µM
  TGI: > 100 µM
[9]
  GI50: 3.67 µM
  TGI: > 100 µM
[10]
  GI50: 15.3 µM
  TGI: > 100 µM
[11]
  GI50: 19.4 µM
  TGI: > 100 µM
[12]
  GI50: 0.876 µM
  TGI: 11.3 µM
[13]
  GI50: 3.12 µM
  TGI: 26.6 µM
[14]
  GI50: 4.66 µM
  TGI: > 100 µM
[15]
  GI50: 2.98 µM
  TGI: 22.2 µM
[16]
  GI50: 2.71 µM
  TGI: 18.2 µM
[17]
  GI50: 3.89 µM
  TGI: > 100 µM
[18]
  GI50: 2.7 µM
  TGI: > 100 µM
[19]
  GI50: 3.36 µM
  TGI: > 100 µM
[20]
  GI50: 3.35 µM
  TGI: 27.1 µM
[21]
  GI50: 2.77 µM
  TGI: > 100 µM
[22]
  GI50: 2.16 µM
  TGI: 11.2 µM
[23]
  GI50: 5.59 µM
  TGI: 76.5 µM
[24]
  GI50: 2.62 µM
  TGI: > 100 µM
[25]
  GI50: 3.02 µM
  TGI: 15.3 µM
[26]
  GI50: 3.77 µM
  TGI: > 100 µM
[27]
  GI50: 2.98 µM
  TGI: 15.4 µM
[28]
  GI50: 5.64 µM
  TGI: > 100 µM
[29]
  GI50: 32.7 µM
  TGI: > 100 µM
[30]
  GI50: 7.87 µM
  TGI: > 100 µM
[31]
  GI50: 3.97 µM
  TGI: > 100 µM
[32]
  GI50: 2.86 µM
  TGI: 9.19 µM
[33]
  GI50: 7.1 µM
  TGI: > 100 µM
[34]
  GI50: 28.6 µM
  TGI: > 100 µM
[35]
  GI50: 3.94 µM
  TGI: 62.4 µM
[36]
  GI50: 4.16 µM
  TGI: > 100 µM
[37]
  GI50: 3.73 µM
  TGI: > 100 µM
[38]
  GI50: 19.1 µM
  TGI: 89.7 µM
[39]
  GI50: 3.86 µM
  TGI: 36.4 µM
[40]
  GI50: 4.42 µM
  TGI: 58.6 µM
[41]
  GI50: 2.78 µM
  TGI: 10.4 µM
[42]
  GI50: 6.69 µM
  TGI: > 100 µM
[43]
  GI50: 5.62 µM
  TGI: > 100 µM
[44]
  GI50: 3.28 µM
  TGI: 13.1 µM
[45]
  GI50: 34.2 µM
  TGI: > 100 µM
[46]
  GI50: 4.78 µM
  TGI: 54.6 µM
[47]
  GI50: 5.22 µM
  TGI: > 100 µM
[48]
  GI50: 3.63 µM
  TGI: > 100 µM
[49]
  GI50: 3.72 µM
  TGI: > 100 µM
[50]
  GI50: 4.35 µM
  TGI: > 100 µM
[51]
  GI50: 16.1 µM
  TGI: > 100 µM
[52]
  GI50: 29.2 µM
  TGI: > 100 µM
[53]
  GI50: 4.39 µM
  TGI: 37.8 µM
[54]
  GI50: 24.1 µM
  TGI: > 100 µM
[55]
  GI50: 3.49 µM
  TGI: 22.6 µM
[56]
  GI50: 3.45 µM
  TGI: > 100 µM
